# Data: patent US20130338178A1, “SIRTUIN MODULATORS AS INHIBITORS OF CYTOMEGALOVIRUS” (THE TRUSTEES OF PRINCETON UNIVERSITY, priority 2011, published 2013)
# Peptide text beside a SMILES is read from it.
# How the values were obtained:
# sirtuin = target: T1, sirtuin (Homo sapiens, UniProt Q8IXJ6); details: cited from earlier work
# T1 sequence (Q8IXJ6 2-389 limits assumed): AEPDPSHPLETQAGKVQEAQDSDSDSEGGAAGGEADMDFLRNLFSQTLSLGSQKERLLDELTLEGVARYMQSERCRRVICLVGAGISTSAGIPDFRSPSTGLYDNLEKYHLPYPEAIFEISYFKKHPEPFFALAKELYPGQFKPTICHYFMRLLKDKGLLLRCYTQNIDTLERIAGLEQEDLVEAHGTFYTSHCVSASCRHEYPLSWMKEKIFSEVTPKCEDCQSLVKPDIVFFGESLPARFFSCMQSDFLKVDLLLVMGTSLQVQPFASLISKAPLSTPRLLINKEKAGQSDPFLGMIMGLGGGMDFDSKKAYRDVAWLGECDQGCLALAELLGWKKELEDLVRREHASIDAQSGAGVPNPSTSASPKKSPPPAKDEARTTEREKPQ
# Sirt6 = Sirt6 (Homo sapiens, UniProt Q8N6T7); details: cited from earlier work
# Sequence of Sirt6 (Q8N6T7 whole entry): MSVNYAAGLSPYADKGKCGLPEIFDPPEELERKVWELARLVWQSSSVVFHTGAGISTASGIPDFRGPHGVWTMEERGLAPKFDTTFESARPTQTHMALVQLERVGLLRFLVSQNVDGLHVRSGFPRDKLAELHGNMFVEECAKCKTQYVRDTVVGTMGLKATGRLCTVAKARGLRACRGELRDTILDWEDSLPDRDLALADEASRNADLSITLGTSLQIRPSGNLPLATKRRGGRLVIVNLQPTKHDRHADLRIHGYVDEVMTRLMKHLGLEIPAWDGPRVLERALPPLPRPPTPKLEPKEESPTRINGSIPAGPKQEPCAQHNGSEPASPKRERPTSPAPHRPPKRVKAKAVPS
# SIRT2 [1] = target: T2, SIRT2 (Homo sapiens, UniProt Q8IXJ6); details: cited from earlier work
# T2 sequence (Q8IXJ6 1-389): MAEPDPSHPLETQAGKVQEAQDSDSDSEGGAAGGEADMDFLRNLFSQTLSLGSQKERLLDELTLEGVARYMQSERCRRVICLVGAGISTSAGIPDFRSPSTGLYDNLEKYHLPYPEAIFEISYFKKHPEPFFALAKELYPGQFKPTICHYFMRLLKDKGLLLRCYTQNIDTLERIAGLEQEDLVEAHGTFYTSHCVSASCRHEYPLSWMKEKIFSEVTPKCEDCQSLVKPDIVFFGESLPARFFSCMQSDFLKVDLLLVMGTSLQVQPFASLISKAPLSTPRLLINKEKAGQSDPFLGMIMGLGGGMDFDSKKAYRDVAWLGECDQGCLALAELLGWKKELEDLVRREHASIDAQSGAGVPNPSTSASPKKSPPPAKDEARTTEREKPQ
# Sirt5 = target: T3, Sirt5 (Homo sapiens, UniProt Q9NXA8); details: cited from earlier work
# T3 sequence (Q9NXA8 37-310): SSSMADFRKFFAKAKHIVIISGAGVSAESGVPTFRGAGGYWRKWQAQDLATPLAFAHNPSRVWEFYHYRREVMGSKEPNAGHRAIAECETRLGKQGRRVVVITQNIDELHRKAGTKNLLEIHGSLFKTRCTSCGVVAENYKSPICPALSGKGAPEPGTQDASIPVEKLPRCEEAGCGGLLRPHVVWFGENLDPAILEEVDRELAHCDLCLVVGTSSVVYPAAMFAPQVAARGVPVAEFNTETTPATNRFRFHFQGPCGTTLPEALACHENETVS
# SIRT1 [2] = target: T4, SIRT1 (Homo sapiens, UniProt Q96EB6); details: cited from earlier work
# T4 sequence (Q96EB6 1-747): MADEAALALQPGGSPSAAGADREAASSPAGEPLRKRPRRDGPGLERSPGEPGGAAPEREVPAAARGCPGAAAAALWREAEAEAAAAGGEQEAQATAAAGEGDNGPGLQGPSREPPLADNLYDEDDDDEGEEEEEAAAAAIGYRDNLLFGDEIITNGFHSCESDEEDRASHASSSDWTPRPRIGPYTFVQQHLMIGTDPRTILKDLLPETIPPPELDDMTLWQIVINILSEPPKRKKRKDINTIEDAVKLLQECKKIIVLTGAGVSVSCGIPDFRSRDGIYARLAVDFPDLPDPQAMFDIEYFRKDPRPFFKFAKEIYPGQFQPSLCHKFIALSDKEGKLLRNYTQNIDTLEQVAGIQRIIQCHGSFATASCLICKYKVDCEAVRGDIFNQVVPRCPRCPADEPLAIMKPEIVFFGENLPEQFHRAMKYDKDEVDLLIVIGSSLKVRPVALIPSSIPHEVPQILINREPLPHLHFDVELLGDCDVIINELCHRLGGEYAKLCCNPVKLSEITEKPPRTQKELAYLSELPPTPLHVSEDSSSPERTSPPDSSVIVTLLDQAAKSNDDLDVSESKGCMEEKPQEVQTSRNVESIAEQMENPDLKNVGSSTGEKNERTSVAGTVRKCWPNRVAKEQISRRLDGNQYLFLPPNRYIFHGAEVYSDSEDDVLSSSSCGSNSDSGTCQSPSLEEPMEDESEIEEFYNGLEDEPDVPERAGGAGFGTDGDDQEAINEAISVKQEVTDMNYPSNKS
# Hst2 = Hst2 (Saccharomyces cerevisiae, UniProt P53686); details: cited from earlier work
# Sequence of Hst2 (P53686 whole entry): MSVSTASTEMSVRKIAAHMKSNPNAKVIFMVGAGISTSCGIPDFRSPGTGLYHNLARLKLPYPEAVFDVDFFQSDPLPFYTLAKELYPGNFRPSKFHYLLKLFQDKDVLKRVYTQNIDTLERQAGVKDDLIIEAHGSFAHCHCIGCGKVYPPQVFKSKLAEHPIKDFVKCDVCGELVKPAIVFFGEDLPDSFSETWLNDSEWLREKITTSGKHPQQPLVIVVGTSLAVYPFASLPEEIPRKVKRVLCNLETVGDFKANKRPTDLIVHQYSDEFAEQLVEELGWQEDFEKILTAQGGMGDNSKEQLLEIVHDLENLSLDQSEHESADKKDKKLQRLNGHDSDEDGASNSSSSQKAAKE
# SIRT2 [3] = target: T2, SIRT2; details: cited from earlier work; for Inhibition (at 60 μM ± SE (%)) SIRT2: n = 2
# SIRT1 [4] = target: T4, SIRT1; details: n = 2; cited from earlier work
# SIRT1 [5] = target: T4, SIRT1; details: cited from earlier work; remark: listed apart in the source
# HCMV pUL99 = assay: Late viral pUL99 expression and cytopathic effect in HCMV infected MRC5 cells; format: cell-based, human cytomegalovirus; details: 10 μM; data not shown
# HCMV [6] = assay: Yield of infectious HCMV from drug-treated infected MRC5 fibroblasts; format: cell-based, human cytomegalovirus; details: FIG. 5
# HCMV [7] = format: cell-based, human cytomegalovirus
# [8] = tested on: Influenza A (WSN/33/A, PR8); format: cell-based, influenza A virus
smiles,measurement,setting,value
c1ccc(CNc2ccc(NCc3ccccc3)cc2)cc1 [4a],"inhibition at 200 μM ± SD, %",sirtuin,21 ± 1.7%
CN1CC(C(=O)NC2(C)OC3(O)C4CCCN4C(=O)C(Cc4ccccc4)N3C2=O)C=C2c3cccc4[nH]cc(c34)CC21 (stereo not drawn) [CSC21],Sirt6 effect,Sirt6,inhibition
same,Sirt2 effect,SIRT2 [1],inhibition
same,Sirt5 effect,Sirt5,inhibition
Oc1ccccc1C=Nc1ccc(N=Cc2ccccc2O)cc1 [3b],"inhibition at 200 μM ± SD, %",sirtuin,56 ± 8.2%
Oc1ccccc1CNc1ccc(NCc2ccccc2O)cc1 [4b],"inhibition at 200 μM ± SD, %",sirtuin,27 ± 2.4%
COc1cccc(C=Nc2ccc(N=Cc3cccc(OC)c3)cc2)c1 [3g],"inhibition at 200 μM ± SD, %",sirtuin,20 ± 1.2%
"CC(C)CCCCCCCCC[C@@H]1CC(=O)NC(CCC(=O)O)C(=O)N[C@@H](CC(C)C)C(=O)N[C@H](CC(C)C)C(=O)N[C@@H](C(C)C)C(=O)N[C@@H](CC(=O)O)C(=O)N[C@H](CC(C)C)C(=O)N[C@@H](CC(C)C)C(=O)O1 (stereo partly drawn) [Surfactin, surfactin] (HELM PEPTIDE1{[O=C(O)CCC(N[*:1])C(=O)[*:2]].L.[dL].V.D.[dL].L}|CHEM1{[CC(C)CCCCCCCCC[C@H](CC(=O)[*:1])O[*:2]]}$PEPTIDE1,CHEM1,1:R1-1:R1|PEPTIDE1,CHEM1,7:R2-1:R2$$$V2.0)",IC50,SIRT1 [2],> 600 µM
same,IC50,Hst2,> 700 µM
O=c1[nH]c(=S)[nH]c(-c2ccc(Br)cc2)c1Cc1c(O)ccc2ccccc12 [Compd 6b],IC50,SIRT2 [3]; determined for compounds with over 60% inhibition at 60 μM,> 90 µM
O=C1c2ccccc2C(=O)c2c(NCc3cc4c5c(ccc6c7ccc8c9c(cc(Nc%10cccc%11c%10C(=O)c%10ccccc%10C%11=O)c(c3c56)c97)-c3ccccc3C8=O)C(=O)c3ccccc3-4)cccc21 [CSC6],Sirt6 effect,Sirt6,inhibition
same,Sirt2 effect,SIRT2 [1],inhibition
O=c1[nH]c(=S)[nH]c(-c2cccc(Cl)c2)c1Cc1c(O)ccc2ccccc12 [Compd 6ix],Inhibition (at 60 μM ± SE (%)) SIRT2,SIRT2 [3],7.6 ± 6%
same,Inhibition (at 60 μM ± SE (%)) SIRT1,SIRT1 [4],11.3 ± 1%
COc1cc(C(=O)Nc2ccccc2-c2cn3c(CN4CCNCC4)csc3n2)cc(OC)c1OC [SRT1460],EC1.5: The concentration to activate 1.5-fold,SIRT1 [5],2.9 µM
O=c1[nH]c(=S)[nH]c(-c2ccc(I)cc2)c1Cc1c(O)ccc2ccccc12 [Compd 6v],Inhibition (at 60 μM ± SE (%)) SIRT2,SIRT2 [3],7.7 ± 1%
same,Inhibition (at 60 μM ± SE (%)) SIRT1,SIRT1 [4],7.7 ± 1%
O=c1[nH]c(=S)[nH]c(-c2ccc(Cl)cc2)c1Cc1c(O)ccc2ccccc12 [Compd 6iv],Inhibition (at 60 μM ± SE (%)) SIRT2,SIRT2 [3],20.1 ± 1%
same,Inhibition (at 60 μM ± SE (%)) SIRT1,SIRT1 [4],13.7 ± 1%
C(=Nc1ccc(N=Cc2ccccc2)cc1)c1ccccc1 [3a],"inhibition at 200 μM ± SD, %",sirtuin,35 ± 1.4%
NC(=O)C1CCCc2c1[nH]c1ccc(Cl)cc21 (stereo not drawn) [EX-527],accumulation of late viral pUL99 protein,HCMV pUL99,increased
O=S1(=O)C(c2ccccc2)C(N2CCCCC2)C1C1CC2c3ccccc3C1c1ccccc12 (stereo not drawn) [CSC33],Sirt6 effect,Sirt6,activation
same,Sirt5 effect,Sirt5,activation
COc1ccccc1C=Nc1ccc(N=Cc2ccccc2OC)cc1 [3f],"inhibition at 200 μM ± SD, %",sirtuin,13 ± 0.5%
c1cc2c(ccc3ncc[nH]c32)n1 [Pyrroloquinoxaline],activation at this concentration,SIRT1 [5]; 10 μM,*233% activation at this concentration
same,EC1.5: The concentration to activate 1.5-fold,SIRT1 [5],10 µM
CN(C)CCCCC(=O)Nc1ccc(NC(=S)NC(=O)c2ccc(C(C)(C)C)cc2)cc1 [Tenovin 6],production of infectious HCMV,HCMV [6],blocked
same,IC50,Hst2,> 100 µM
CC(C(=O)Nc1cccc(/N=C/c2c(O)ccc3ccccc23)c1)c1ccccc1 (stereo not drawn) [Salermide],inhibition of HCMV production by a factor of,HCMV [7],about 5
same,inhibition of the production of HCMV progeny by a factor of,HCMV [7],~80
same,production of infectious HCMV,HCMV [6],blocked
same,production of infectious Influenza A progeny,[8],inhibited
Oc1ccc(CNc2ccc(NCc3ccc(O)cc3)cc2)cc1 [4d],"inhibition at 200 μM ± SD, %",sirtuin,14 ± 0.5%
O=C1C2C3c4ccccc4C(c4ccccc43)C2C(=O)N1c1ccc(OCc2ccccc2)cc1 (stereo not drawn) [CSC34],Sirt6 effect,Sirt6,activation
same,Sirt2 effect,SIRT2 [1],inhibition
O=C1OC2(c3ccc(O)cc3Oc3cc(O)ccc32)c2c1c(-c1ccccc1)c(-c1ccccc1)c(-c1ccccc1)c2-c1ccccc1 [CSC28],Sirt6 effect,Sirt6,activation
same,Sirt2 effect,SIRT2 [1],inhibition
O=Cc1ccc2c(c1)C(=O)c1ccc3c4ccc5c6c(ccc(c7ccc-2c1c37)c64)-c1ccc(C(=O)O)cc1C5=O [CSC14],Sirt2 effect,SIRT2 [1],inhibition
same,Sirt5 effect,Sirt5,inhibition
C/C(=C1/C=C(c2ccc3ccccc3c2)OC1=O)c1ccc(C(C)C)cc1 [CSC9],Sirt2 effect,SIRT2 [1],inhibition
same,Sirt5 effect,Sirt5,activation^c
O=c1[nH]c(=S)[nH]c(-c2cccc(Br)c2)c1Cc1c(O)ccc2ccccc12 [Compd 6viii],Inhibition (at 60 μM ± SE (%)) SIRT2,SIRT2 [3],6.6 ± 3%
same,Inhibition (at 60 μM ± SE (%)) SIRT1,SIRT1 [4],4.8 ± 1%
"Cc1ccc(C(=O)Nc2ccc(S(=O)(=O)O)c3cc(S(=O)(=O)O)cc(S(=O)(=O)O)c23)cc1NC(=O)c1cccc(NC(=O)Nc2cccc(C(=O)Nc3cc(C(=O)Nc4ccc(S(=O)(=O)O)c5cc(S(=O)(=O)O)cc(S(=O)(=O)O)c45)ccc3C)c2)c1 [Suramin, suramin]",IC50,Hst2,240 ± 70 µM
Oc1cccc(CNc2ccc(NCc3cccc(O)c3)cc2)c1 [4c],"inhibition at 200 μM ± SD, %",sirtuin,8 ± 0.4%
O=c1[nH]c(=S)[nH]c(-c2ccccc2Br)c1Cc1c(O)ccc2ccccc12 [Compd 6vii],Inhibition (at 60 μM ± SE (%)) SIRT1,SIRT1 [4],19.7 ± 1%
Oc1cccc(C=Nc2ccc(N=Cc3cccc(O)c3)cc2)c1 [3c],"inhibition at 200 μM ± SD, %",sirtuin,12 ± 0.9%
O=c1[nH]c(=S)[nH]c(-c2ccc(C(F)(F)F)cc2)c1Cc1c(O)ccc2ccccc12 [Compd 6vi],Inhibition (at 60 μM ± SE (%)) SIRT2,SIRT2 [3],6.7 ± 1%
same,Inhibition (at 60 μM ± SE (%)) SIRT1,SIRT1 [4],15.1 ± 1%
c1cnc2ocnc2c1 [Oxazolopyridine],EC1.5: The concentration to activate 1.5-fold,SIRT1 [5],0.09 µM
O=C(Nc1ccccc1-c1cn2c(CN3CCNCC3)csc2n1)c1cnc2ccccc2n1 [SRT1720],EC1.5: The concentration to activate 1.5-fold,SIRT1 [5],0.16 µM
O=C1CCc2c(ccc3ccccc23)O1 [Splitomycin],IC50,Hst2,> 600 µM
Cc1ccc2c(c1)CCC1C2CCC2(C)C(OC(=O)CCc3ccccc3)CCC12 (stereo not drawn) [CSC8],Sirt2 effect,SIRT2 [1],inhibition
Cc1ccc2[nH]c3c(c2c1)CCCC3C(N)=O (stereo not drawn) [Indole 2],IC50,SIRT1 [2],0.64 ± 0.06 µM
same,IC50,Hst2,14.5 ± 0.6 µM
C=C(C(C)c1ccc2c(c1)Cc1ccccc1-2)C(C)c1ccc2c(c1)Cc1ccccc1-2 (stereo not drawn) [CSC7],Sirt2 effect,SIRT2 [1],inhibition
O=S(=O)(c1cccc(C(F)(F)F)c1)N1c2ccccc2-n2cccc2C1c1cccnc1 (stereo not drawn) [CSC38],Sirt6 effect,Sirt6,activation
same,Sirt2 effect,SIRT2 [1],inhibition
same,Sirt5 effect,Sirt5,activation
Oc1ccc(C=Nc2ccc(N=Cc3ccc(O)cc3)cc2)cc1 [3d],"inhibition at 200 μM ± SD, %",sirtuin,22 ± 1.6%
